≈ marks a conversion by molar mass, not a printed value.
Assays:
Assay type in all cases: functional
Escherichia coli [1] = experiment: Antibacterial activity against wild type Escherichia coli DK/pKK3535
Escherichia coli [2] = experiment: Antibacterial activity against Escherichia coli DK harboring 23S rRNA A2058G mutant
Staphylococcus aureus [3] = experiment: Antibacterial activity against Staphylococcus aureus UCN14 harboring 23S rRNA A2058T mutant
Escherichia coli [4] = experiment: Antibacterial activity against Escherichia coli SQ171 harboring 23S rRNA A2058G mutant
Staphylococcus aureus [5] = experiment: Antibacterial activity against Staphylococcus aureus ATCC 33591 harboring ermA gene

| SMILES | MIC (Escherichia coli [1]) [µg/mL] | MIC (Escherichia coli [2]) [µg/mL] | MIC (Staphylococcus aureus [3]) [µg/mL] | MIC (Escherichia coli [4]) [µg/mL] | MIC (Staphylococcus aureus [5]) [µg/mL] |
| --- | --- | --- | --- | --- | --- |
| CC[C@H]1OC(=O)[C@H](C)C(=O)C[C@@H](O[C@@H]2O[C@H](C)C[C@H](N(C)C)[C@H]2O)[C@@](C)(OC)CCC(=O)C[C@@H]2N(CCCCn3cnc(-c4cccnc4)c3)C(=O)O[C@@]21C | 32 (≈ 41.6 µM) |  |  |  |  |
| CC[C@H]1OC(=O)[C@H](C)C(=O)C[C@@H](O[C@@H]2O[C@H](C)C[C@H](N(C)C)[C@H]2O)[C@](C)(OC)C[C@@H](C)C(=O)C[C@H]2N(CCCCn3cnc(-c4cccnc4)c3)C(=O)O[C@]12C | 8 (≈ 10.2 µM) | 16 (≈ 20.4 µM) | > 256 | > 512 | > 128 |
| CC[C@H]1OC(=O)[C@H](C)C(=O)[C@H](C)[C@@H](O[C@@H]2O[C@H](C)C[C@H](N(C)C)[C@H]2O)[C@](C)(OC)C[C@@H](C)C(=O)[C@H](C)[C@H]2N(CCCCn3cnc(-c4cccnc4)c3)C(=O)O[C@]12C [TELITHROMYCIN] | 0.5 (≈ 0.616 µM) | 1 (≈ 1.23 µM) | > 128 | > 512 | > 128 |

— ChEMBL document CHEMBL2046443, “Desmethyl Macrolides: Synthesis and Evaluation of 4,10-Didesmethyl Telithromycin” (2012)
